Reference: patent US20150125432A1, “Human Persistent Fetal Vasculature Neural Progenitors for Transplantation in the Inner Retina” (The Schepens Eye Research Institute, Inc., priority 2012, published 2015)

Experiments:
NPPFV cells = experiment: Ca2+ imaging (Fura-2) of NPPFV cells after stimulation with neurotransmitters; type: cell-based, human; conditions: for percentage of responding NPPFV cells: neurotransmitter 0.1 mM, mean±SEM; for elicited [Ca2+]i of responding NPPFV cells: undifferentiated and differentiated NPPFV cells, result in words
Description: Cells were incubated at 37° C. for 30 min in X-vivo medium (containing 3% FBS, 5 μM Fura-2 tetra-acetoxymethyl ester, 8 μM pluronic acid F127 and 250 μM sulfinpyrazone). Cells were washed in modified Mg^2+-free Hank's balanced salt solution (HBSS, 2.6 mM CaCl2, 15 mM HEPES [pH 7.4] and 250 μM sulfinpyrazone). Five types of neurotransmitters, γ-aminobutyric acid (GABA), glutamate (Glu), glycine (Gly), dopamine (Dopa) and acetylcholine (Ach) were dissolved in modified HBSS at a concentration of 0.1 mM. The largest dynamic range for Ca^2+-dependent fluorescence signals is obtained by excitation at 340 nm and 380 nm, and detecting their ratio of emission fluorescence intensities at around 510 nm. From this ratio, the concentration of intracellular Ca^2+ ([Ca^2+]i) can be estimated, using dissociation constants that are derived from calibration curves. By using the ratio of fluorescence intensities produced by excitation at two wave lengths, factors such as uneven dye distribution and photo bleaching are minimized ([…] Ratio Imaging System, Cincinnati, Ohio). The change of [Ca^2+]i was calculated from the difference between the peak Ca^2+ concentration evoked by each agonist and the control value of HBSS (before the addition of agonist). At least 80 cells were selected for analyzing the change of [Ca^2+]i evoked by each agonist, averaged over three repetitions.

B6 mouse RGCs [1] = experiment: RGC survival assay (LIVE/DEAD) in co-culture with transfected hNPPFV cells; type: cell-based; conditions: added to hNPPFV^igf-1-tdTomato co-culture; H-1356 40 μg/ml, NBI-31772 10 μM, IGF-1R antibody 1:250; words
Description: (§1) P0 B6 mice were euthanized with CO2 and the retinas were dissected out from the eyecups in cold Hank's buffer (Life Technologies) containing 1× Penicillin-Streptomycin-Glutamine (Life Technologies). Retinas were digested in 20 U/ml papain solution containing 100 U/ml DNaseI at 37° C. for 5-15 min; the reaction was stopped with 5 mg/ml ovomucoid protease inhibitor containing 5 mg/ml albumin. Retinas were gently triturated to obtain a single cell suspension, and cells were washed once and re-suspended in 800 μl washing buffer (0.5% BSA, 2 mM EDTA in 1×PBS). RGCs were isolated using Thy1.2 (CD90.2) microbeads and MACS® magnetic separation system (Miltenyi Biotech) following the manufacturer's instructions. […]
(§2) Co-culture inserts and culture media were removed after 3 days; RGCs were washed with 1×PBS and stained with CalceinAM and EthD-1 (LIVE/DEAD® Viability/Cytotoxicity kit, Life Technologies) for 40 min at room temperature. Images of 4-6 view fields were randomly selected throughout each well under an Olympus inverted fluorescence microscope. Live and dead cells were counted using ImageJ 1.46 (National Institutes of Health, Bethesda, Md.) and survival rates were calculated as live cells/live+dead cells×100%. […] Images were acquired with an Olympus inverted fluorescence microscope. Neurite lengths were measured using ImageJ.

B6 mouse RGCs [2] = experiment: Neurite outgrowth assay of RGCs in co-culture with transfected hNPPFV cells; type: cell-based; conditions: added to hNPPFV^igf-1-tdTomato co-culture; H-1356 40 μg/ml, NBI-31772 10 μM, IGF-1R antibody 1:250; words
Description: as §1, §2

[3] = test system: retina of adult C57BL/6 mice; experiment: Inner retinal (intravitreal) transplantation into adult C57BL/6 mice; type: in vivo, mouse; conditions: intraperitoneal RA 2 mg/kg·day, 3 weeks; result in words
Excerpt: For studying their potential for inner retinal transplantation, NPPFV cells or hRPCs were intravitreally injected to 20 and 10 C57BL/6 mice, respectively. Animals were maintained in standard animal facility. To trace the transplanted cells, NPPFV cells and hRPCs were infected with an AAV2 or retrovirus vector harboring EGFP (HGTI, Boston, Mass.) following the instructions of each transfection kit, respectively. Mice (4-6 weeks of age) were deeply anesthetized with an intraperitoneal injection of ketamine (120 mg/kg) and xylazine (20 mg/kg) and pupils were dilated with 0.5% topical tropicamide. Dissociated GFP-positive cells (1×10^5 cells/2 μl) were suspended in HBSS […] of the eye through a glass micropipette connected to a 10 μl Hamilton syringe via polyethylene tubing. Sham-injected mice received HBSS without cells. All experimental animals received injection in one eye and the other eye was used as an untreated control. […] Anti-GFP antibody (1:100, ABCAM, USA) was used to enhance the fluorescence of prelabled-GFP, while anti-β-III-tubulin (1:500, Sigma, USA), anti-GFAP (1:300, Sigma, USA) and anti-synaptophysin (1:100, DAKO, USA) antibodies helped to assess the differentiation of the transplanted cells. […] Every 10th serial section was counted, measuring […] in thickness as to avoid redundancy of cell counts.

[4] = target: IGF-1 receptor on B6 mouse retinal ganglion cells (mouse) (UniProt Q60751); experiment: cell-based or functional assay
Chain of UniProt Q60751 (Q60751 31-1373): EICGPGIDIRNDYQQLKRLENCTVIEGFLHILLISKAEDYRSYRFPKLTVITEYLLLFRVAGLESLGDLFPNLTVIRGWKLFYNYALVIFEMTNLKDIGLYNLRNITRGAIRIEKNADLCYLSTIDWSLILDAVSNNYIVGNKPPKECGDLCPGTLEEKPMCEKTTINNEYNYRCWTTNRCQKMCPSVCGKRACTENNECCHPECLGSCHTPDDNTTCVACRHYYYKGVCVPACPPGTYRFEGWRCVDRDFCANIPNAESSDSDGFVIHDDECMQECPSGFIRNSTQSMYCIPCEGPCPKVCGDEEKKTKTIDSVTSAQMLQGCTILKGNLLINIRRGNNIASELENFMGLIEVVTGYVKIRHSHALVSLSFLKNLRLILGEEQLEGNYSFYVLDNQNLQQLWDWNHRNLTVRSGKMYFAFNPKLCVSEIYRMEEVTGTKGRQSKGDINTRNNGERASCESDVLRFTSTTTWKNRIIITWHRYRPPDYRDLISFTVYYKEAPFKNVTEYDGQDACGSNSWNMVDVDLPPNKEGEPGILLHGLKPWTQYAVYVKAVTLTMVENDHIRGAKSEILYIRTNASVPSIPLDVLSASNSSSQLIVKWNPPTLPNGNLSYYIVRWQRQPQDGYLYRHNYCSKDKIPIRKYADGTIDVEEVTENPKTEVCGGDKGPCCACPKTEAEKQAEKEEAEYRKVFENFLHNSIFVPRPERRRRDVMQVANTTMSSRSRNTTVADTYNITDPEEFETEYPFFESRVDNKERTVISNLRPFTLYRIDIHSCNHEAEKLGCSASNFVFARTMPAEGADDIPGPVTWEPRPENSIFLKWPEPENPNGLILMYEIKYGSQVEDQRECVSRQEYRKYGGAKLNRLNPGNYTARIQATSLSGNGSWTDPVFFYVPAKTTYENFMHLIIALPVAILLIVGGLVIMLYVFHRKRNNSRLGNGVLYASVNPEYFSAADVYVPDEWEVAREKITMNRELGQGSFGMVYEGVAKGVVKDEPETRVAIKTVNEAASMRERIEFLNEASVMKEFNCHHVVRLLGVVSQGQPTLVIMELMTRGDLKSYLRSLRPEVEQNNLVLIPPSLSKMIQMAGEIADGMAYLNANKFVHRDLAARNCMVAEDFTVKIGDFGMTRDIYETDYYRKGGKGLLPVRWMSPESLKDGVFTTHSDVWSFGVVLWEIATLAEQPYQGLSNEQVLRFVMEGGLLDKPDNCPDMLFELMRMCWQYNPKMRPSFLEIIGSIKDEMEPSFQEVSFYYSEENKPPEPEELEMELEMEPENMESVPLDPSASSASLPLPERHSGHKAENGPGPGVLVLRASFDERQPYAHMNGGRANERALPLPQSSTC

| Compound | percentage of responding NPPFV cells (NPPFV cells; differentiated NPPFV cells) | percentage of responding NPPFV cells (NPPFV cells; undifferentiated NPPFV cells) | elicited [Ca2+]i of responding NPPFV cells (NPPFV cells) | further results |
| --- | --- | --- | --- | --- |
| CC(=O)OCC[N+](C)(C)C [Ach, acetylcholine] | 8.23±5.41% | 10.96±8.12% |  |  |
| NCCc1ccc(O)c(O)c1 [Dopa, dopamine] | 7.89±9.18% | 6.41±7.14% | quite low |  |
| NCCCC(=O)O [GABA, γ-aminobutyric acid] | 12.99±4.86% | 14.94±11.73% | quite low |  |
| N[C@@H](CCC(=O)O)C(=O)O [Glu, glutamate] | 87.88±4.97% | 48.98±11.67% | significant increase |  |
| NCC(=O)O [Gly, glycine] | 21.05±9.72% | 16.67±10.62% | quite low |  |
| O=C(O)c1cc2cc(O)c(O)cc2c(C(=O)c2ccc(O)c(O)c2)n1 [NBI-31772] |  |  |  | effect on IGF-1-tdTomato-mediated RGC survival (B6 mouse RGCs [1]): completely eliminated the effects; effect on IGF-1-tdTomato-mediated neurite outgrowth (B6 mouse RGCs [2]): completely eliminated the effects |
| CC1=C(/C=C/C(C)=C/C=C/C(C)=C/C(=O)O)C(C)(C)CCC1 [RA, all-trans-retinoic acid] |  |  |  | differentiation of engrafted NPPFV cells into retinal ganglion-like neurons [3]: significantly increases the differentiation of engrafts into retinal ganglion-like mature neurons |
| IGF-1-tdTomato fusion protein (from UniProt P05017 49-118) (ligand) |  |  |  | average neurite length of RGCs co-cultured with hNPPFV^igf-1-tdTomato cells [4]: 93 µm; neurites per RGC co-cultured with hNPPFV^igf-1-tdTomato cells (neurites/cell) [4]: 2; survival rate of RGCs co-cultured with hNPPFV^igf-1-tdTomato cells [4]: 22% |
